# According to patent US8680113B2, “BMI-1 protein expression modulators” (PTC Therapeutics, Inc., priority 2008, dated 2014):
# Tested on: Bmi-1
# Test: Sandwich ELISA Assay (Bmi-1 ELISA in HT-1080 cells)
# Format: cell-based, human
# Description: Cell Seeding and Compound Treatment (Day 1):
# HT-1080 cells were seeded at 8000 cells/well (50 uL) in 96-well tissue culture plates. After the cells become adherent (3-4 hours), 2× diluted stocks of compounds in 50 uL DMEM containing 1% DMSO (final DMSO concentration was 0.5%) were added and the plates were incubated at 37° C. under 5% CO2 for 40-48 hours
# ELISA Plate First Antibody Preparation (Day 2):
# The First Antibody (Millipore Mouse, monoclonal to mouse Bmi-1, clone F6, catalog #05-637) diluted to 2 ug/mL in PBS was added (100 uL) to each well of a Nunc MaxiSorp 96-well ELISA plate. The plate was covered with a plate seal and allowed to stand overnight.
# Cell Lysate Preparation (Day 3):
# Fresh 1× Lysis buffer was prepared on the day of the assay as follows: 1 mM EDTA, 150 mM NaCl, 0.5% Triton-X 100, 10 mM NaF, 20 mM B-Glycerophosphate, 1 mM DTT (in PBS, pH 7.2-7.4) and 1×HALT protease inhibitor cocktail (Pierce #78410).
# 1× Lysis Buffer (40 uL) was added to each well and the plate was shaken for 5-10 minutes on an orbital shaker to allow cell lysis, then Diluent (1% BSA in PBS in 0.5% NP40) (100 uL) was added to each well.
# The Bmi-1 standard curve was prepared in Diluent at the following concentrations of protein: 8000, 4000, 2000, 1000, 500, 250, 125, 0 pg/mL The Bmi-1 Recombinant Protein Standard (Novus Biologicals PCGF4 Recombinant Protein (P01), catalog #H00000648-P01) used in the standard curve was stored at −80° C., and on first thaw, diluted to 10 ug/uL in Blocking Buffer (1% BSA in PBS; BSA: Fisher Scientific Catalog #1600-100) before being aliquoted and refrozen at −80° C. Aliquots can be kept at 4° C. and reused after first thaw, but only for 1-2 weeks. The Bmi-1 Recombinant Protein Standard contains a GST-fusion tag and thus will show up on western blots around 70 Kda.
# The prepared ELISA plate was washed 3× with Wash Buffer (0.05% Tween-20 in PBS). The final wash was removed from the plate and the plate was blotted dry on paper towels. Blocking Buffer (300 uL) (1% BSA in PBS) was added per well. The plate was covered with a plate seal and incubated at room temperature for 1 hour. The blocked plate was washed 3× with Wash Buffer, the final wash was removed and the plate was blotted dry on paper towels. The previously prepared samples and standards were added (at 100 uL/well) and the plate was covered with a plate seal and incubated at 4° C. overnight.
# The prepared ELISA plate was removed from 4° C., incubated at room temperature for 30 minutes, then washed and blotted dry as previously described for Day 3. The Second Antibody (Cell Signaling Rabbit anti-Bmi-1, Cat#2830) diluted to 1:600 in Blocking Buffer was added (100 uL) to each well, except as needed for background control wells. The plate was covered with a plate seal and incubated for 1.5 hrs at room temperature.
# The ELISA plate was washed and blotted dry as previously described. The Third Antibody (Cell Signaling HRP conjugated anti-rabbit IgG (CellSignaling, Cat#:7074) diluted to 1:300 in Blocking Buffer was added (100 uL) to each well, except as needed for background control wells. The plate was incubated for 1 hr at room temperature.
# The plate was washed and blotted dry as previously described, then prepared TMB substrate (TMB substrate kit, Pierce catalog #34021) (prepared by mixing kit reagents 1:1) (100 uL) was added per well. The plate was incubated for 20-30 minutes at room temperature in the dark, then Stop Solution (2 M sulfuric acid in water) (50 uL) was added per well. The plates were read at OD450 (experimental) and OD570 (reference).
row,Compound,IC50 [µM]
1,"Clc1cc(Cl)c(Nc2nc(-c3cnc4ccc(Cl)cn34)cs2)c(Cl)c1 [Cpd 136, 4-(6-chloroimidazo[1,2-a]pyridin-3-yl)-N-(2,4,6-trichlorophenyl)-1,3-thiazol-2-amine]",0.5 to 1
2,"Cc1nc2ccccn2c1-c1csc(Nc2ccc3c(c2)OCO3)n1 [Cpd 56, N-(1,3-benzodioxol-5-yl)-4-(2-methylimidazo[1,2-a]pyridin-3-yl)-1,3-thiazol-2-amine]",< 0.5
3,"COc1ccc(N(C)c2nccc(-c3c(C)nc4ncccn34)n2)cc1 [Cpd 47, N-(4-methoxyphenyl)-N-methyl-4-(2-methylimidazo[1,2-a]pyrimidin-3-yl)pyrimidin-2-amine]",< 0.5
4,"CCN(CC)c1ccc(Nc2nccc(-c3cnc4ccccn34)n2)cc1 [Cpd 253, N,N-diethyl-N′-[4-(imidazo[1,2-a]pyridin-3-yl)pyrimidin-2-yl]benzene-1,4-diamine]",< 0.5
5,"CCc1nc2ncccn2c1-c1ccnc(Nc2ccc(Br)cc2)n1 [Cpd 271, N-(4-bromophenyl)-4-(2-ethylimidazo[1,2-a]pyrimidin-3-yl)pyrimidin-2-amine]",< 0.5
6,"N-(4-ethoxyphenyl)-4-(2-methylimidazo[1,2-a]pyridin-3-yl)pyrimidin-2-amine [Cpd 128]",< 0.5
7,"COc1ccc(Nc2nc(-c3c(C)nc4ccccn34)cs2)cc1 [Cpd 44, N-(4-methoxyphenyl)-4-(2-methylimidazo[1,2-a]pyridin-3-yl)-1,3-thiazol-2-amine]",< 0.5
8,"CN(C)c1cccc(Nc2nccc(-c3cnc4ncccn34)n2)c1 [Cpd 264, N′-[4-(imidazo[1,2-a]pyrimidin-3-yl)pyrimidin-2-yl]-N,N-dimethylbenzene-1,3-diamine]",< 0.5
9,"CCCc1nc2ncccn2c1-c1csc(Nc2ccc3c(c2)OCO3)n1 [Cpd 182, N-(1,3-benzodioxol-5-yl)-4-(2-propylimidazo[1,2-a]pyrimidin-3-yl)-1,3-thiazol-2-amine]",< 0.5
10,"CN(C)c1ccc(Nc2nccc(-c3cnc4ncccn34)n2)cc1 [Cpd 265, N′-[4-(imidazo[1,2-a]pyrimidin-3-yl)pyrimidin-2-yl]-N,N-dimethylbenzene-1,4-diamine]",0.5 to 1
11,"CCN(CC)c1ccc(Nc2nccc(-c3c(C)nc4ccccn34)n2)cc1 [Cpd 130, N,N-diethyl-N′-[4-(2-methylimidazo[1,2-a]pyridin-3-yl)pyrimidin-2-yl]benzene-1,4-diamine]",< 0.5
12,"Cc1nc2ccccn2c1-c1ccnc(Nc2cccc(N(C)C)c2)n1 [Cpd 118, N,N-dimethyl-N′-[4-(2-methylimidazo[1,2-a]pyridin-3-yl)pyrimidin-2-yl]benzene-1,3-diamine]",< 0.5
13,"CCOc1ccc(Nc2nccc(-c3cnc4ccccn34)n2)cc1 [Cpd 252, N-(4-ethoxyphenyl)-4-(imidazo[1,2-a]pyridin-3-yl)pyrimidin-2-amine]",< 0.5
14,"1-(4-{[4-(imidazo[1,2-a]pyrimidin-3-yl)pyrimidin-2-yl]amino}phenyl)ethanone [Cpd 258]",< 0.5

# Next, values leading:
row,IC50 [µM],Compound
1,< 0.5,"CC(=O)c1ccc(Nc2nc(-c3cnc4ccc(Cl)cn34)cs2)cc1 [Cpd 107, 1-(4-{[4-(6-chloroimidazo[1,2-a]pyridin-3-yl)-1,3-thiazol-2-yl]amino}phenyl)ethanone]"
2,< 0.5,"CN(C)c1ccc(Nc2nc(-c3cnc4ccc(Cl)cn34)cs2)cc1 [Cpd 106, N′-[4-(6-chloroimidazo[1,2-a]pyridin-3-yl)-1,3-thiazol-2-yl]-N,N-dimethylbenzene-1,4-diamine]"
3,< 0.5,"CCc1nc2ncccn2c1-c1csc(Nc2ccc(Br)cc2)n1 [Cpd 148, N-(4-bromophenyl)-4-(2-ethylimidazo[1,2-a]pyrimidin-3-yl)-1,3-thiazol-2-amine]"
4,< 0.5,"Cc1nc2c(C)cccn2c1-c1csc(Nc2ccc(Cl)cc2)n1 [Cpd 224, N-(4-chlorophenyl)-4-(2,8-dimethylimidazo[1,2-a]pyridin-3-yl)-1,3-thiazol-2-amine]"
5,< 0.5,"CCCc1nc2ccccn2c1-c1csc(Nc2ccc(OC)c(Cl)c2)n1 [Cpd 172, N-(3-chloro-4-methoxyphenyl)-4-(2-propylimidazo[1,2-a]pyridin-3-yl)-1,3-thiazol-2-amine]"
6,< 0.5,"CCOc1ccc(Nc2nc(-c3c(C)nc4ccc(Cl)cn34)cs2)cc1 [Cpd 88, 4-(6-chloro-2-methylimidazo[1,2-a]pyridin-3-yl)-N-(4-ethoxyphenyl)-1,3-thiazol-2-amine]"
7,< 0.5,"Cc1ccc(Nc2nc(-c3c(C)nc4ccc(Cl)cn34)cs2)cc1 [Cpd 89, 4-(6-chloro-2-methylimidazo[1,2-a]pyridin-3-yl)-N-(4-methylphenyl)-1,3-thiazol-2-amine]"
8,< 0.5,"Cc1nc2c(C)cccn2c1-c1csc(Nc2ccc(N(C)C)cc2)n1 [Cpd 221, N′-[4-(2,8-dimethylimidazo[1,2-a]pyridin-3-yl)-1,3-thiazol-2-yl]-N,N-dimethylbenzene-1,4-diamine]"
9,< 0.5,"CCOc1ccc(Nc2nc(-c3c(C)nc4ccccn34)cs2)cc1 [Cpd 204, N-(4-ethoxyphenyl)-4-(2-methylimidazo[1,2-a]pyridin-3-yl)-1,3-thiazol-2-amine]"
10,< 0.5,"Cc1nc2ccc(Br)cn2c1-c1csc(Nc2ccc(I)cc2)n1 [Cpd 101, 4-(6-bromo-2-methylimidazo[1,2-a]pyridin-3-yl)-N-(4-iodophenyl)-1,3-thiazol-2-amine]"
11,< 0.5,"Cc1ccc2nc(C)c(-c3csc(Nc4ccc5c(c4)OCO5)n3)n2c1 [Cpd 72, N-(1,3-benzodioxol-5-yl)-4-(2,6-dimethylimidazo[1,2-a]pyridin-3-yl)-1,3-thiazol-2-amine]"
12,< 0.5,"CCc1nc2ncccn2c1-c1csc(Nc2ccc(OC)c(Cl)c2)n1 [Cpd 153, N-(3-chloro-4-methoxyphenyl)-4-(2-ethylimidazo[1,2-a]pyrimidin-3-yl)-1,3-thiazol-2-amine]"
13,< 0.5,"Cc1ccc(Nc2nc(-c3c(C)nc4c(C)cccn34)cs2)cc1 [Cpd 223, 4-(2,8-dimethylimidazo[1,2-a]pyridin-3-yl)-N-(4-methylphenyl)-1,3-thiazol-2-amine]"
14,< 0.5,"Cc1nc2ccc(Br)cn2c1-c1csc(Nc2ccc(Br)cc2)n1 [Cpd 102, 4-(6-bromo-2-methylimidazo[1,2-a]pyridin-3-yl)-N-(4-bromophenyl)-1,3-thiazol-2-amine]"
15,< 0.5,"Cc1nc2ccc(Br)cn2c1-c1csc(Nc2ccc(Cl)cc2)n1 [Cpd 100, 4-(6-bromo-2-methylimidazo[1,2-a]pyridin-3-yl)-N-(4-chlorophenyl)-1,3-thiazol-2-amine]"
16,< 0.5,"CC(=O)c1ccc(Nc2nc(-c3c(C)nc4ccccn34)cs2)cc1 [Cpd 55, 1-(4-{[4-(2-methylimidazo[1,2-a]pyridin-3-yl)-1,3-thiazol-2-yl]amino}phenyl)ethanone]"
17,< 0.5,"Cc1nc2ccc(Cl)cn2c1-c1csc(Nc2cccc(O)c2)n1 [Cpd 210, 3-{[4-(6-chloro-2-methylimidazo[1,2-a]pyridin-3-yl)-1,3-thiazol-2-yl]amino}phenol]"
18,< 0.5,"Cc1nc2cc(Cl)ccn2c1-c1csc(Nc2ccc(N(C)C)cc2)n1 [Cpd 242, N′-[4-(7-chloro-2-methylimidazo[1,2-a]pyridin-3-yl)-1,3-thiazol-2-yl]-N,N-dimethylbenzene-1,4-diamine]"
